Series [1] has as its system hepatocyte cell line HepG2. Kind of series: Toxicity on hepatocyte cell line HepG2 (MTT test). The class given is cell-based. The conditions noted are these: for CD50 (cytotoxic concentration leading to reduction of 50% of the cell number compared to untreated cells): HepG2, 72 h, MTT test. The method, then:
PACLP and paclitaxel were evaluated in vitro using hepatocyte cell line HepG2. Cells were cultured in 96 well plates at a cell density of 20000 cell/well and treated with increasing concentrations of both PACLP and paclitaxel (0-1000 μM) for 72 h. Control cells were treated with an absolute ethanol, diluted in the same way as the tested substances. Cytotoxicity was measured using the MTT test. All experiments were carried out in triplicates and each test was repeated three times.
CD50 (the cytotoxic concentration leading to reduction of 50% of the cell number compared to untreated cells) was at concentration of 5 μM and 100 μM, and 500 μM for paclitaxel, PACLP, and the solvent, respectively.
A general note: Tetrazolium assays rely on reduction of a dye to a coloured formazan, in cell work by metabolically active cells.

The test system of the next series is CAPAN. The series can be described thus: MTT proliferation assay, in vitro cytotoxicity. It counts as cell-based. To be noted: 72 h, FIG. 3d, read-out: calculated EC50. As for the experimental part:
(§1) Cancer cells, HeLa, Caco-2, PC3 prostate, CAPAN, A549, SKBR3 were maintained in a humidified atmosphere at 37° C. and gassed with 5% CO2 in air in air. The cells were incubated with various concentrations of paclitaxel and PACLP. The in vitro cytotoxicity of the drugs was measured by a proliferation assay utilizing tetrazolium dye, MTT ([3-(4,5-[…])-2,5 diphenyl tetrazolium bromid). The experiments were carried out with cells in the exponential growth phase.
(§2) Results of these experiments are presented in graphs 3a-3f, indicating the IC50, (the concentration found to inhibit about fifty percent of the growth of the cancer cell lines).

The next series has as its system SKBR3 breast carcinoma. Kind of series: MTT proliferation assay, in vitro cytotoxicity. To be noted: Homo sapiens, SK-BR-3, FIG. 3f, read-out: calculated EC50. It counts as cell-based. As for the experimental part:
as §1, §2

The subject of series [2] is Caco-2 carcinoma of the colon. The series can be described thus: MTT proliferation assay, in vitro cytotoxicity. The class given is cell-based. The conditions noted are these: Homo sapiens, FIG. 3b, read-out: calculated EC50. As for the experimental part: as §1, §2
The next series has as its system PC3 prostate carcinoma. The series can be described thus: MTT proliferation assay, in vitro cytotoxicity. The conditions noted are these: FIG. 3c, read-out: calculated EC50. It counts as cell-based. The method, then: as §1, §2
The next series deals with A549 lung cancer. The series can be described thus: MTT proliferation assay, in vitro cytotoxicity. To be noted: Homo sapiens, FIG. 3e, read-out: Calculated EC50. The class given is cell-based. The method, then: as §1, §2
A further series deals with HeLa cell line. Kind of series: MTT proliferation assay, in vitro cytotoxicity. The class given is cell-based. The conditions noted are these: Homo sapiens, FIG. 3a, read-out: calculated EC50. As for the experimental part:
as §1, §2

Another series has as its system Balb/c mice. Kind of series: LD50 test using Balb/c mice. The class given is in vivo. The conditions noted are these: 80-140 mg/kg, observed 4 weeks after injection. The method, then: Balb/c mice were divided into 9 groups, 8 mice in each group (4 males and 4 females). Group one, the control group, were given 50 μl solvent with 150 μL normal saline. Groups 2, 3, 4 and 5 were given 125, 150, 175, 200 mg/kg of PACLP respectively. Groups 6, 7, 8 and 9 were given 80, 100, 120, 140 mg/kg of paclitaxel respectively. Mice were observed 4 weeks after injection. The results are set in FIG. 6. Most of the animals died within the first week after treatment.

Series [3] concerns endothelial cells of human (H-1044 EC p7 naïve). The series can be described thus: Effect on endothelial cell proliferation (cell count). It counts as cell-based. To be noted: 48 hours, in words. The method, then: The test was conducted using endothelial cells of human (H-1044 EC p7 naïve). 70,000 cells were grown in each well. After the cells have adhered for 3 hours, the material (paclitaxel or PACLP) was added to the cells. After 48 hours of cell growth the cells were detached by trypsin and counted. The results are set in.

Another series relates to 6 cancer cell lines. The series can be described thus: In vitro anti-tumor activity on 6 cancer cell lines (overall comparison). The conditions noted are these: in words. It counts as cell-based. The method, then: as §1, §2

Converted amounts (≈) assume the structure as drawn. “Also recorded” adds a separate entry of the source.

A word on the EC50: it is the concentration giving half of the maximal effect.

Turning to `CC(=O)O[C@H]1C(=O)[C@@]2(C)[C@H]([C@H](OC(=O)c3ccccc3)[C@]3(O)C[C@H](OC(=O)[C@H](O)[C@@H](NC(=O)c4ccccc4)c4ccccc4)C(C)=C1C3(C)C)[C@]1(OC(C)=O)CO[C@@H]1C[C@@H]2O` [paclitaxel, reference compound], in [1], the “CD50 (cytotoxic concentration leading to reduction of 50% of the cell number compared to untreated cells)” value was 5 µM. Also, the EC50 was 11 µg/mL (≈ 12.9 µM) in the series with CAPAN; 19 µg/mL (≈ 22.3 µM) in the series with SKBR3 breast carcinoma; 9 µg/mL (≈ 10.5 µM) in series [2]; 12 µg/mL (≈ 14.1 µM) in the series with PC3 prostate carcinoma; 5.5 µg/mL (≈ 6.44 µM) in the series with A549 lung cancer; 9 µg/mL (≈ 10.5 µM) in the series on HeLa cell line. In addition, in the series on Balb/c mice, the observation before death entry is “swelling and redness before death”.
Take `CC(=O)O[C@H]1C(=O)[C@@]2(C)[C@H]([C@H](OC(=O)c3ccccc3)[C@]3(O)C[C@H](OC(=O)[C@H](OC(=O)CCCCC4CCSS4)[C@@H](NC(=O)c4ccccc4)c4ccccc4)C(C)=C1C3(C)C)[C@]1(OC(C)=O)CO[C@@H]1C[C@@H]2O` (stereo partly drawn) [PACLP, Paclitaxel-lipoate]: the “cytotoxicity compared to paclitaxel” value in series [3] is on record as “less cytotoxic”; in [1] (hepatocyte cell line HepG2, in words) it was “less cytotoxic”. Moreover, in [1], the “CD50 (cytotoxic concentration leading to reduction of 50% of the cell number compared to untreated cells)” value stood at 100 µM. In addition, the EC50 is 5 µg/mL (≈ 4.8 µM) in the series on CAPAN; 2 µg/mL (≈ 1.92 µM) in the series on SKBR3 breast carcinoma; 1.5 µg/mL (≈ 1.44 µM) in series [2]; 3.5 µg/mL (≈ 3.36 µM) with PC3 prostate carcinoma; 2.5 µg/mL (≈ 2.4 µM) with A549 lung cancer; 1.5 µg/mL (≈ 1.44 µM) in the series with HeLa cell line. Besides, the “anti-tumor activity compared to free paclitaxel” value with 6 cancer cell lines is “greater anti-tumor activity; also recorded: somewhat more effective than paclitaxel”.

These data come from US8586625B2, “Derivatives of taxol and closely related compounds” (priority 2008, dated 2013).
